# Assay results published in patent publication US10722520B2, “Heterocyclic compounds and their use in preventing or treating bacterial infections” (MUTABILIS, priority 2016, dated 2020).
# Read-outs that look alike come from different tables or passages of the source.
# Experiments:
# SHV-1 = SHV-1 (Klebsiella pneumoniae, UniProt P0AD64)
# OXA-11 = OXA-11 (Pseudomonas aeruginosa, UniProt Q06778)
# OXA-48 = OXA-48 (Klebsiella pneumoniae, UniProt Q6XEC0)
# CTX-M-15 = CTX-M-15 (Escherichia coli, UniProt Q9EXV5)
# KPC-2 = KPC-2 (Klebsiella pneumoniae, UniProt Q9F663)
# OXA-1 = OXA-1 (Escherichia coli, UniProt P13661)
# K. pneumoniae 200047 = assay: MIC of compound alone, broth microdilution; assay type: cell-based; settings: strain 200047: K. pneumoniae, TEM-1, SHV-32, CTX-M-15, OXA-1; for MIC: Klebsiella pneumoniae, read-out: MIC compounds of the invention alone
# Outline: (§1)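 Visual end point: lowest concentration that blocked growth. Conditions: cation-adjusted Mueller-Hinton broth, 5×10^5 cfu/mL final inoculum of log-phase bacteria, 16-20 h, 35° C, ambient atmosphere.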
# E. coli UFR74 = assay: MIC of compound alone, broth microdilution; assay type: cell-based; settings: strain UFR74: E. coli, SHV-1, DHA-1; for MIC: Escherichia coli, read-out: MIC compounds of the invention alone
# Outline: as §1
# E. coli 131119 = assay: MIC of compound alone, broth microdilution; assay type: cell-based; settings: strain 131119: E. coli, TEM-1, OXA-48; for MIC: Escherichia coli, read-out: MIC compounds of the invention alone
# Outline: as §1
# K. pneumoniae 160143 = assay: MIC of compound alone, broth microdilution; assay type: cell-based; settings: strain 160143: K. pneumoniae, TEM-1, SHV-1, CTX-M-15, KPC-2, OXA-1; for MIC: Klebsiella pneumoniae, read-out: MIC compounds of the invention alone
# Outline: as §1
# E. coli UFR18 = assay: MIC of compound alone, broth microdilution; assay type: cell-based; settings: strain UFR18: E. coli, CTX-M-15, OXA-204; for MIC: Escherichia coli, read-out: MIC compounds of the invention alone
# Outline: as §1
# E. cloacae UFR51 = assay: MIC of compound alone, broth microdilution; assay type: cell-based; settings: strain UFR51: E. cloacae, SHV-12, IMP-8; for MIC: Enterobacter cloacae, read-out: MIC compounds of the invention alone
# Outline: as §1
# K. pneumoniae UFR68 = assay: MIC of compound alone, broth microdilution; assay type: cell-based; settings: strain UFR68: K. pneumoniae, TEM-1, SHV-11, CTX-M-15, KPC-3; for MIC: Klebsiella pneumoniae, read-out: MIC compounds of the invention alone
# Outline: as §1
# E. coli 190317 = assay: MIC of compound alone, broth microdilution; assay type: cell-based; settings: strain 190317: E. coli, TEM-1, SHV-12, CTX-M-15, OXA-1; for MIC: Escherichia coli, read-out: MIC compounds of the invention alone
# Outline: as §1
# E. coli UFR41 = assay: MIC of compound alone, broth microdilution; assay type: cell-based; settings: strain UFR41: E. coli, TEM-1, CTX-M-15, CMY-2, OXA-1, NDM-4; for MIC: Escherichia coli, read-out: MIC compounds of the invention alone
# Outline: as §1
# K. pneumoniae UFR24 = assay: MIC of compound alone, broth microdilution; assay type: cell-based; settings: strain UFR24: K. pneumoniae, TEM-1, SHV-2, SHV-11, OXA-1, OXA-48, OXA-47; for MIC: Klebsiella pneumoniae, read-out: MIC compounds of the invention alone
# Outline: as §1
# E. coli UFR39 = assay: MIC of compound alone, broth microdilution; assay type: cell-based; settings: for MIC: Escherichia coli, UFR39, read-out: MIC compounds of the invention alone
# Outline: as §1
# E. coli UFR61O = assay: MIC of compound alone, broth microdilution; assay type: cell-based; settings: strain UFR61O: E. coli, TEM-1, KPC-2; for MIC: Escherichia coli, read-out: MIC compounds of the invention alone
# Outline: as §1
# E. cloacae 260508 = assay: MIC of compound alone, broth microdilution; assay type: cell-based; settings: strain 260508: E. cloacae, TEM-1, CTX-M-15; for MIC: Enterobacter cloacae, read-out: MIC compounds of the invention alone
# Outline: as §1
# E. cloacae UFR70 = assay: MIC of compound alone, broth microdilution; assay type: cell-based; settings: strain UFR70: E. cloacae, TEM-1, CTX-M-15, CMY-2, OXA-1, Porin loss; for MIC: Enterobacter cloacae, read-out: MIC compounds of the invention alone
# Outline: as §1
# K. pneumoniae BAA-1898 = assay: MIC of compound alone, broth microdilution; assay type: cell-based; settings: strain BAA-1898: K. pneumoniae, TEM-1, SHV-11, SHV-12, KPC-2; for MIC: Klebsiella pneumoniae, BAA1898, read-out: MIC compounds of the invention alone
# Outline: as §1
# K. pneumoniae UFR77 = assay: MIC of compound alone, broth microdilution; assay type: cell-based; settings: strain UFR77: K. pneumoniae, CMY-2; for MIC: Klebsiella pneumoniae, read-out: MIC compounds of the invention alone
# Outline: as §1
# K. pneumoniae 6299 = assay: MIC of compound alone, broth microdilution; assay type: cell-based; settings: strain 6299: K. pneumoniae, TEM-1, SHV-11, OXA-163; for MIC: Klebsiella pneumoniae, read-out: MIC compounds of the invention alone
# Outline: as §1
# E. cloacae UFR85 = assay: MIC of compound alone, broth microdilution; assay type: cell-based; settings: strain UFR85: E. cloacae, TEM-1, CTX-M-15, AmpC; for MIC: Enterobacter cloacae, read-out: MIC compounds of the invention alone
# Outline: as §1
# K. oxytoca UFR21 = assay: MIC of compound alone, broth microdilution; assay type: cell-based; settings: strain UFR21: K. oxytoca, TEM-1, CTX-M-15, OXA-48; for MIC: Klebsiella oxytoca, read-out: MIC compounds of the invention alone
# Outline: as §1
smiles,measurement,setting,value
"O=C1N2CC(n3ccnn3)=CC(C2)N1OS(=O)(=O)[O-].[Na+] (centres unmarked) [Example 2, sodium [7-oxo-3-(triazol-1-yl)-1,6-diazabicyclo[3.2.1]oct-3-en-6-yl]sulfate]",IC50,"SHV-1; read-out: IC50 β-lactamase SHV-1, class (A), nitrocefin 200 μM, 30-min pre-incubation, enzyme 0.075 nM",4 nM
same,IC50,"OXA-11; read-out: IC50 β-lactamase OXA-11, class (D), nitrocefin 200 μM, 30-min pre-incubation, enzyme 1.2 nM",40 nM
same,IC50,"OXA-48; read-out: IC50 β-lactamase OXA-48, class (D), nitrocefin 200 μM, 30-min pre-incubation, enzyme 0.3 nM",0.59 nM
same,IC50,"CTX-M-15; read-out: IC50 β-lactamase CTX-M-15, class (A), nitrocefin 200 μM, 30-min pre-incubation, enzyme 0.4 nM",0.67 nM
same,IC50,"KPC-2; read-out: IC50 β-lactamase KPC-2, class (A), nitrocefin 200 μM, 30-min pre-incubation, enzyme 1 nM",4.7 nM
same,IC50,"OXA-1; read-out: IC50 β-lactamase OXA-1, class (D), nitrocefin 200 μM, 30-min pre-incubation, enzyme 0.2 nM",58 nM
same,MIC compounds of the invention alone,K. pneumoniae 200047,2 µg/mL
same,MIC compounds of the invention alone,E. coli UFR74,2 µg/mL
same,MIC compounds of the invention alone,E. coli 131119,1 µg/mL
same,MIC compounds of the invention alone,K. pneumoniae 160143,2 µg/mL
same,MIC compounds of the invention alone,E. coli UFR18,1 µg/mL
same,MIC compounds of the invention alone,E. cloacae UFR51,2 µg/mL
same,MIC compounds of the invention alone,K. pneumoniae UFR68,4 µg/mL
same,MIC compounds of the invention alone,E. coli 190317,1 µg/mL
same,MIC compounds of the invention alone,E. coli UFR41,2 µg/mL
same,MIC compounds of the invention alone,K. pneumoniae UFR24,4 µg/mL
same,MIC compounds of the invention alone,"E. coli UFR39; strain UFR39: E. coli, CTX-M-15, NDM-1",1 µg/mL
same,MIC compounds of the invention alone,E. coli UFR61O,4 µg/mL
same,MIC compounds of the invention alone,E. cloacae 260508,2 µg/mL
same,MIC compounds of the invention alone,E. cloacae UFR70,1 µg/mL
same,MIC compounds of the invention alone,K. pneumoniae BAA-1898,2 µg/mL
same,MIC compounds of the invention alone,K. pneumoniae UFR77,2 µg/mL
same,MIC compounds of the invention alone,K. pneumoniae 6299,4 µg/mL
same,MIC compounds of the invention alone,E. cloacae UFR85,1 µg/mL
same,MIC compounds of the invention alone,K. oxytoca UFR21,2 µg/mL
"O=C1N2CC(n3nccn3)=CC(C2)N1OS(=O)(=O)O (centres unmarked) [Example 3, sodium [7-oxo-3-(triazol-2-yl)-1,6-diazabicyclo[3.2.1]oct-3-en-6-yl]sulfate]",IC50,SHV-1,9.7 nM
same,IC50,OXA-11,85 nM
same,IC50,OXA-48,1.6 nM
same,IC50,CTX-M-15,2.1 nM
same,IC50,KPC-2,12 nM
same,IC50,OXA-1,200 nM
same,MIC,K. pneumoniae 200047,4 µg/mL
same,MIC,E. coli UFR74,8 µg/mL
same,MIC,E. coli 131119,1 µg/mL
same,MIC,K. pneumoniae 160143,4 µg/mL
same,MIC,E. coli UFR18,2 µg/mL
same,MIC,E. cloacae UFR51,2 µg/mL
same,MIC,K. pneumoniae UFR68,8 µg/mL
same,MIC,E. coli 190317,2 µg/mL
same,MIC,E. coli UFR41,16 µg/mL
same,MIC,K. pneumoniae UFR24,8 µg/mL
same,MIC,E. coli UFR39,8 µg/mL
same,MIC,E. coli UFR61O,8 µg/mL
same,MIC,E. cloacae 260508,4 µg/mL
same,MIC,E. cloacae UFR70,4 µg/mL
same,MIC,K. pneumoniae BAA-1898,8 µg/mL
same,MIC,K. pneumoniae UFR77,4 µg/mL
same,MIC,K. pneumoniae 6299,16 µg/mL
same,MIC,E. cloacae UFR85,4 µg/mL
same,MIC,K. oxytoca UFR21,8 µg/mL
"O=C1N2CC(n3cncn3)=CC(C2)N1OS(=O)(=O)[O-].[Na+] (centres unmarked) [Example 5, sodium [7-oxo-3-(1,2,4-triazol-1-yl)-1,6-diazabicyclo[3.2.1]oct-3-en-6-yl]sulfate]",IC50,SHV-1,4.4 nM
same,IC50,OXA-11,14 nM
same,IC50,OXA-48,0.45 nM
same,IC50,CTX-M-15,0.66 nM
same,IC50,KPC-2,3 nM
same,IC50,OXA-1,49 nM
same,MIC,K. pneumoniae 200047,2 µg/mL
same,MIC,E. coli UFR74,4 µg/mL
same,MIC,E. coli 131119,2 µg/mL
same,MIC,K. pneumoniae 160143,2 µg/mL
same,MIC,E. coli UFR18,2 µg/mL
same,MIC,E. cloacae UFR51,4 µg/mL
same,MIC,K. pneumoniae UFR68,4 µg/mL
same,MIC,E. coli 190317,1 µg/mL
same,MIC,E. coli UFR41,4 µg/mL
same,MIC,K. pneumoniae UFR24,2 µg/mL
same,MIC,E. coli UFR39,2 µg/mL
same,MIC,E. coli UFR61O,8 µg/mL
same,MIC,E. cloacae 260508,4 µg/mL
same,MIC,E. cloacae UFR70,2 µg/mL
same,MIC,K. pneumoniae BAA-1898,4 µg/mL
same,MIC,K. pneumoniae UFR77,4 µg/mL
same,MIC,K. pneumoniae 6299,4 µg/mL
same,MIC,E. cloacae UFR85,4 µg/mL
same,MIC,K. oxytoca UFR21,4 µg/mL
"O=C1N2CC(n3ccsc3=O)=CC(C2)N1OS(=O)(=O)[O-].[Na+] (centres unmarked) [Example 1, Sodium [7-oxo-3-(2-oxo-thiazol-3-yl)-1,6-diaza-bicyclo[3.2.1]oct-3-en-6-yl]sulfate]",IC50,SHV-1,1.5 nM
same,IC50,OXA-11,92 nM
same,IC50,OXA-48,1.9 nM
same,IC50,CTX-M-15,0.55 nM
same,IC50,KPC-2,13 nM
same,IC50,OXA-1,120 nM
same,MIC,K. pneumoniae 200047,8 µg/mL
same,MIC,E. coli UFR74,16 µg/mL
same,MIC,E. coli 131119,2 µg/mL
same,MIC,K. pneumoniae 160143,4 µg/mL
same,MIC,E. coli UFR18,2 µg/mL
same,MIC,E. cloacae UFR51,4 µg/mL
same,MIC,K. pneumoniae UFR68,8 µg/mL
same,MIC,E. coli 190317,2 µg/mL
same,MIC,E. coli UFR41,4 µg/mL
same,MIC,K. pneumoniae UFR24,16 µg/mL
same,MIC,E. coli UFR39,2 µg/mL
same,MIC,E. coli UFR61O,16 µg/mL
same,MIC,E. cloacae 260508,4 µg/mL
same,MIC,E. cloacae UFR70,4 µg/mL
same,MIC,K. pneumoniae BAA-1898,8 µg/mL
same,MIC,K. pneumoniae UFR77,8 µg/mL
same,MIC,K. pneumoniae 6299,32 µg/mL
same,MIC,E. cloacae UFR85,4 µg/mL
same,MIC,K. oxytoca UFR21,8 µg/mL
"O=C1N2CC(n3ccnn3)=C[C@H](C2)N1OS(=O)(=O)O [Example 6, sodium [(5R)-7-oxo-3-(triazol-1-yl)-1,6-diazabicyclo[3.2.1]oct-3-en-6-yl]sulfate]",IC50,SHV-1,1.9 nM
same,IC50,OXA-11,21 nM
same,IC50,OXA-48,0.38 nM
same,IC50,CTX-M-15,0.58 nM
same,IC50,KPC-2,2.1 nM
same,IC50,OXA-1,31 nM
same,MIC,K. pneumoniae 200047,1 µg/mL
same,MIC,E. coli UFR74,1 µg/mL
same,MIC,E. coli 131119,0.5 µg/mL
same,MIC,K. pneumoniae 160143,1 µg/mL
same,MIC,E. coli UFR18,0.5 µg/mL
same,MIC,E. cloacae UFR51,1 µg/mL
same,MIC,K. pneumoniae UFR68,1 µg/mL
same,MIC,E. coli 190317,0.5 µg/mL
same,MIC,E. coli UFR41,2 µg/mL
same,MIC,K. pneumoniae UFR24,1 µg/mL
same,MIC,E. coli UFR39,1 µg/mL
same,MIC,E. coli UFR61O,2 µg/mL
same,MIC,E. cloacae 260508,1 µg/mL
same,MIC,E. cloacae UFR70,0.5 µg/mL
same,MIC,K. pneumoniae BAA-1898,2 µg/mL
same,MIC,K. pneumoniae UFR77,1 µg/mL
same,MIC,K. pneumoniae 6299,2 µg/mL
same,MIC,E. cloacae UFR85,1 µg/mL
same,MIC,K. oxytoca UFR21,1 µg/mL
